pIC50, pKi: −log10 of the molar value.
What was measured:
[1] = biological target: T1, GAK kinase domain (12-347) (Homo sapiens, UniProt O14976); experiment: TR-FRET ligand binding displacement assay, GAK
T1 sequence (O14976 12-347): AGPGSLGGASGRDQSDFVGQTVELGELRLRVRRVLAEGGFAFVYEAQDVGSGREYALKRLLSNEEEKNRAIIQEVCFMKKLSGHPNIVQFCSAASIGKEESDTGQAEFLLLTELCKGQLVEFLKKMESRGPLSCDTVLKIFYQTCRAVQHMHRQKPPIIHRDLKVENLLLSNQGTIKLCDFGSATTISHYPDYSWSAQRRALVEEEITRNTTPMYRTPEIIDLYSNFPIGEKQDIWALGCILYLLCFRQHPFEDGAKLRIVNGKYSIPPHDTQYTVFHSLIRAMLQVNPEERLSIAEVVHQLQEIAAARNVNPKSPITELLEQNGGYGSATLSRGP

[2] = biological target: STK16 kinase domain (13-305) (Homo sapiens, UniProt O75716); experiment: TR-FRET ligand binding displacement assay, STK16
STK16 kinase domain (13-305), sequence (O75716 13-305): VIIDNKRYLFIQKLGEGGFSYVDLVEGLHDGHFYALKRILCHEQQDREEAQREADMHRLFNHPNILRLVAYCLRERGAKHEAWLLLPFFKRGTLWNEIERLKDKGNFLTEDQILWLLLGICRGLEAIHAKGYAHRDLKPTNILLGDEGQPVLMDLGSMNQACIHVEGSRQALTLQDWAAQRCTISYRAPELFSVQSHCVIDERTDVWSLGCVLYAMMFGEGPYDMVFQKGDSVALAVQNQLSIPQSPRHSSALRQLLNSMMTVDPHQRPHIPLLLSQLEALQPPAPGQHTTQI

[3] = biological target: T2, N-terminal Nano Luciferase/GAK fusion (NL-GAK) in HEK293 cells (Homo sapiens, UniProt O14976); experiment: GAK nanoBRET cellular target engagement assay
T2 sequence (O14976 1-1311): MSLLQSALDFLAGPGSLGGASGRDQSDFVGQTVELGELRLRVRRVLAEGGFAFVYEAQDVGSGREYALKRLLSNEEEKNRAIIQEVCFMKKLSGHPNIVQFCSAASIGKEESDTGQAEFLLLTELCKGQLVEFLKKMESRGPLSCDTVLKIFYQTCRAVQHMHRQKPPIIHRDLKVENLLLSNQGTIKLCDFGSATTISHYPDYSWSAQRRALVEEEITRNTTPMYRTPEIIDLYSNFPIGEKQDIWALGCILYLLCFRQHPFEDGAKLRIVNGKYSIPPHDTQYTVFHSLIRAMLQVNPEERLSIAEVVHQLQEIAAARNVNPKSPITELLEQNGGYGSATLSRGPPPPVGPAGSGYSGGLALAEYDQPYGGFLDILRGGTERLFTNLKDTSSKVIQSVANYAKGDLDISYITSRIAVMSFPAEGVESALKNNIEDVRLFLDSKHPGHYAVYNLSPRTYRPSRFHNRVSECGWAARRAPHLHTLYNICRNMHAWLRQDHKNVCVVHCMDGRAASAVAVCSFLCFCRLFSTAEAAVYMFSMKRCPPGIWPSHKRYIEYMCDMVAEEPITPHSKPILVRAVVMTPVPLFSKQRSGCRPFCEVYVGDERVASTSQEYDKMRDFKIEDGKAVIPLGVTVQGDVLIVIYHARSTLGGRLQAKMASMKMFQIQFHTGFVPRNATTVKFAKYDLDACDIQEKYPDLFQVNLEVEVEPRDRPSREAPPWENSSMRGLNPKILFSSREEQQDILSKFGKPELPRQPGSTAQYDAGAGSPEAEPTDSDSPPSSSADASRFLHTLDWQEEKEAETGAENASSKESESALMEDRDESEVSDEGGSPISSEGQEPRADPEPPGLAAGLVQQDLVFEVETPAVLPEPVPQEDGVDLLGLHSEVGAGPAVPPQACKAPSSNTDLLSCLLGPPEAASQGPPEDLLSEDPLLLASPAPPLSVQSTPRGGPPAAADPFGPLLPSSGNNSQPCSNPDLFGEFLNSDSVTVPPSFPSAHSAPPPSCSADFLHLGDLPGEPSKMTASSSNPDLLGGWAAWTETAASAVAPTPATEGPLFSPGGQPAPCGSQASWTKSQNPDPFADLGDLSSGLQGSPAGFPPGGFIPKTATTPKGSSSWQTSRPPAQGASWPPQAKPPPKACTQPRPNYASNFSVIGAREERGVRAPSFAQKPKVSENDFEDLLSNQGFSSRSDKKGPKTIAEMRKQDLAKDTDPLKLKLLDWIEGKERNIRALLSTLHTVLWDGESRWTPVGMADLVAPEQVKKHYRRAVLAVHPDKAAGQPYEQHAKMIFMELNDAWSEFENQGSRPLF

[4] = biological target: AAK1 kinase domain (31-396) (Homo sapiens, UniProt Q2M2I8); experiment: TR-FRET ligand binding displacement assay, AAK1
AAK1 kinase domain (31-396), sequence (Q2M2I8 31-396): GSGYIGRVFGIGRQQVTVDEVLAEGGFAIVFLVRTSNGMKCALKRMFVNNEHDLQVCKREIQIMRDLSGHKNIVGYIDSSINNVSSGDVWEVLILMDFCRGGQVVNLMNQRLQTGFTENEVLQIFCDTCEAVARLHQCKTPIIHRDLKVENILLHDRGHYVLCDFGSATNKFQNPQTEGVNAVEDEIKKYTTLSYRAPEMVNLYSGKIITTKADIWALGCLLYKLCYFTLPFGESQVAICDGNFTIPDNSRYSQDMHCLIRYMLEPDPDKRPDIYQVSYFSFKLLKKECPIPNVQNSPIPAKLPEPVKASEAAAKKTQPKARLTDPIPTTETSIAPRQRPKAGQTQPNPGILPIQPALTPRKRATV

[5] = biological target: BMP2K kinase domain (38-345) (Homo sapiens, UniProt Q9NSY1); experiment: TR-FRET ligand binding displacement assay, BMP2K
BMP2K kinase domain (38-345), sequence (Q9NSY1 38-345): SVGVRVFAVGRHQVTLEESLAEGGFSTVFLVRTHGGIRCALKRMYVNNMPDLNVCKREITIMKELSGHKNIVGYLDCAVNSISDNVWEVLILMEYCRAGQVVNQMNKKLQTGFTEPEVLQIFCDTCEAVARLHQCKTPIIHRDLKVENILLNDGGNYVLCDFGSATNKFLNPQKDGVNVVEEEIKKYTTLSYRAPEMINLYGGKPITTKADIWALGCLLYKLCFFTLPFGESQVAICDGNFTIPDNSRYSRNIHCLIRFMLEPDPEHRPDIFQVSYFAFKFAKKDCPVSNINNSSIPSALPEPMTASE

[6] = system: kinases in SUM159 cell lysate (>240 protein kinases profiled); experiment: Multiplexed inhibitor beads / mass spectrometry; type: binding; conditions: SUM159 cell lysate
[7] = biological target: T3, kinases in SUM159 cell lysate (>240 protein kinases profiled) (Homo sapiens, UniProt O14976); experiment: Multiplexed inhibitor beads / mass spectrometry; type: binding; conditions: SUM159 lysate, highest concentration (10 nM), 30 minutes on ice
T3 sequence (O14976 1-1311): T2 sequence (O14976 1-1311)

GAK = conditions: cited from earlier work

## COc1cc(Nc2ccnc3cc(F)cc(F)c23)cc(OC)c1OC [Compound 44, 5,7-Difluoro-N-(3,4,5-trimethoxyphenyl)quinolin-4-amine]
[1]
  pKi: 6.85
[1]; selectivity against the nearest NAK family member
  NAK selectivity (ratio of GAK Ki and Ki of nearest NAK family member): >720
[2]
  pKi: < 4.00
[3]; NanoBRET GAK IC50, HEK293 cells, 8-point dose response, average of 2 experiments
  pIC50: 5.36
[4]
  pKi: < 4.00
[5]
  pKi: < 4.00

## COc1cc2nccc(Nc3cc(OC)c(OC)c(OC)c3)c2cc1OC [Compound 49, 6,7-Dimethoxy-N-(3,4,5-trimethoxyphenyl)quinolin-4-amine]
[2]
  pKi: < 4.00
[3]; nanoBRET, over the single methoxy substitutions 48 & 50
  fold cellular potency increase: 14–17 fold
[6]
  kinases bound in MIB/MS (kinome selectivity): binding to only GAK and RIPK2
[7]
  GAK depletion in MIB/MS: ~10 fold

## COc1cc(Nc2c(C#N)cnc3cc(OCCCN4CCN(C)CC4)c(OC)cc23)c(Cl)cc1Cl [bosutinib]
GAK
  off target activity on GAK, potency: low nanomolar range

## Cc1nc(Nc2ncc(C(=O)Nc3c(C)cccc3Cl)s2)cc(N2CCN(CCO)CC2)n1 [dasatinib]
GAK
  off target activity on GAK, potency: low nanomolar range

## C#Cc1cccc(Nc2ncnc3cc(OCCOC)c(OCCOC)cc23)c1 [erlotinib]
GAK
  off target activity on GAK, potency: low nanomolar range

## COc1cc2ncnc(Nc3ccc(F)c(Cl)c3)c2cc1OCCCN1CCOCC1 [gefitinib]
GAK
  off target activity on GAK, potency: low nanomolar range
